Source: US20230332245A1, “Complement as Prognostic and Predictive Biomarker and Potential Therapeutic Target in Renal Cell Carcinoma” (Texas Tech University System, priority 2020, published 2023)

What was measured:
Type in all cases: in vivo, mouse
[1] = system: Renca cells; assay: Tumor growth in anti-PD-1-recalcitrant Renca model of RCC; conditions: BALB/c mice, s.c. Renca tumors; vs placebo (PBS) or isotype IgG; FIG. 6A, 6C
Procedure: (§1) Mouse studies were approved by the Institutional Animal Care and Use Committee of the Texas Tech University Health Sciences Center. Eight to twelve weeks old BALB/c, C3ar1, and C5ar1 knockout mice from the Jackson Laboratory were injected s.c. with 1×10^6 Renca cells (ATCC® CRL2947™). When tumors reached ˜5 mm in diameter mice were assigned to treatment cohorts and treated with, C3aR1 inhibitor SB 290157 (Sigma-Aldrich, 10 mg/kg i.p. twice a day), C5aR1 inhibitor PMX53 [17] (1 mg/kg, i.p. every other day), or PD-1 antibody (RMP1-14, BE-0146, Bio X Cell, 250 μg per mouse i.p. every 4 days), or RaIgG2a isotype control (BE-0089, Bio X Cell, 250 μg i.p. every 4 days), as previously described. CD8^+ T cells were depleted by intraperitoneal (i.p.) injection of 200 μg of CD8a-neutralizing antibody (2.43, Bio X cell, NH) per mouse, each day, for three consecutive days, prior to injecting tumor cells. […] BALB/c control mice were treated in the same manner with rat IgG2b (LTF-2, Bio X cell).
To test in vivo the role of complement proteins, the inventors used RCC-Renca (ATCC® CRL-2947™), a murine RCC model that while differing from human RCC, has been extensively evaluated in immunotherapy studies and is known to be recalcitrant to ICI [34], and therefore, potentially resembles ICI-resistant RCC. […]

[2] = system: CD8^+ T cells in tumors (TIL); assay: Flow cytometry of CD8+ T cells (TIL) and IFN-γ expressing TIL in Renca tumors
Procedure: Mouse studies were approved by the Institutional Animal Care and Use Committee of the Texas Tech University Health Sciences Center. Eight to twelve weeks old BALB/c, C3ar1, and C5ar1 knockout mice from the Jackson Laboratory were injected s.c. with 1×10^6 Renca cells (ATCC® CRL2947™). When tumors reached ˜5 mm in diameter mice were assigned to treatment cohorts and treated with, C3aR1 inhibitor SB 290157 (Sigma-Aldrich, 10 mg/kg i.p. twice a day), C5aR1 inhibitor PMX53 [17] (1 mg/kg, i.p. every other day), or PD-1 antibody (RMP1-14, BE-0146, Bio X Cell, 250 μg per mouse i.p. every 4 days), or RaIgG2a isotype control (BE-0089, Bio X Cell, 250 μg i.p. every 4 days), as previously described. […]
Cells from tumors were pre-incubated with CD16/32 antibody (Fc block; 2.4G2; BD Pharmingen) and stained with fluorochrome-conjugated antibodies from Biolegend: BV605-CD45 (30-F11), AF700-CD3 (17A2), PerCP/Cy5.5-CD4 (GK1.5), and PE/Cy7-CD8α (53-6.7) as recommended by the manufacturer. To quantify IFN-γ expression, cells were stained with surface markers and permeabilized with Cytofix/Cytoperm (554714, BD Biosciences), and washed with 1× Perm/Wash buffer (554714, BD Biosciences) followed by incubation with PE-IFN-γ (XMG1.2, Biolegend). […] Data were acquired on BD Fortessa and analyzed with FlowJo software (Tree Star).

[3] = system: genes associated with T cell exhaustion; proangiogenic genes; assay: Real time quantitative PCR of gene expression in Renca tumors; conditions: relative to placebo; FIG. 6K
Procedure: as §1
RNA was extracted from frozen tissue using RNeasy plus mini kit (Qiagen) and cDNA was generated using High-Capacity RNA-to-cDNA™ kit (Applied Biosystems). […] Relative expression was calculated using the 2^−ΔΔCt method and RT2 profiler PCR Array Data Analysis (SAB Biosciences) and normalized to GAPDH.

Compound	tumor growth (tumor volumes) [1]	TIL function: production of IFN-γ upon ex-vivo restimulation ([2]; FACS after CD3/CD28 restimulation, FIG. 6G-6J)	expression of genes associated with T cell exhaustion (Pdcd1, Ctla4, Btla, Fas, Stat3) in tumors [3]	recruitment of CD8+ T cells to tumors (TIL) ([2]; FACS, FIG. 6D, 6F)
NC(N)=NCCC[C@H](NC(=O)COCC(c1ccccc1)c1ccccc1)C(=O)O [SB290157]	reduced tumor growth	highest production of IFN-γ	Btla and Fas were upregulated	–
PMX53	reduced tumor growth	–	reduction in the expression	influx CD8^+ T cells to tumors
